Assay results reported in ChEMBL document CHEMBL5131499, “Design, synthesis and glycosidase inhibition of C-4 branched LAB and DAB derivatives” (Eur J Med Chem, 2022).

Assays:
[1] = target: T1, Lysosomal alpha-glucosidase (Homo sapiens, UniProt P10253); test: Inhibition of human lysosomal alpha glucosidase assessed as release of p-nitrophenol using p-nitrophenyl glycoside as substrate by spectrometric assay
[2] = target: T2, Sucrase-isomaltase, intestinal (Rattus norvegicus, UniProt P23739); test: Inhibition of rat intestinal isomaltase assessed as release of p-nitrophenol using p-nitrophenyl glycoside as substrate by spectrometric assay
T2 sequence (P23739 1-1013 limits assumed): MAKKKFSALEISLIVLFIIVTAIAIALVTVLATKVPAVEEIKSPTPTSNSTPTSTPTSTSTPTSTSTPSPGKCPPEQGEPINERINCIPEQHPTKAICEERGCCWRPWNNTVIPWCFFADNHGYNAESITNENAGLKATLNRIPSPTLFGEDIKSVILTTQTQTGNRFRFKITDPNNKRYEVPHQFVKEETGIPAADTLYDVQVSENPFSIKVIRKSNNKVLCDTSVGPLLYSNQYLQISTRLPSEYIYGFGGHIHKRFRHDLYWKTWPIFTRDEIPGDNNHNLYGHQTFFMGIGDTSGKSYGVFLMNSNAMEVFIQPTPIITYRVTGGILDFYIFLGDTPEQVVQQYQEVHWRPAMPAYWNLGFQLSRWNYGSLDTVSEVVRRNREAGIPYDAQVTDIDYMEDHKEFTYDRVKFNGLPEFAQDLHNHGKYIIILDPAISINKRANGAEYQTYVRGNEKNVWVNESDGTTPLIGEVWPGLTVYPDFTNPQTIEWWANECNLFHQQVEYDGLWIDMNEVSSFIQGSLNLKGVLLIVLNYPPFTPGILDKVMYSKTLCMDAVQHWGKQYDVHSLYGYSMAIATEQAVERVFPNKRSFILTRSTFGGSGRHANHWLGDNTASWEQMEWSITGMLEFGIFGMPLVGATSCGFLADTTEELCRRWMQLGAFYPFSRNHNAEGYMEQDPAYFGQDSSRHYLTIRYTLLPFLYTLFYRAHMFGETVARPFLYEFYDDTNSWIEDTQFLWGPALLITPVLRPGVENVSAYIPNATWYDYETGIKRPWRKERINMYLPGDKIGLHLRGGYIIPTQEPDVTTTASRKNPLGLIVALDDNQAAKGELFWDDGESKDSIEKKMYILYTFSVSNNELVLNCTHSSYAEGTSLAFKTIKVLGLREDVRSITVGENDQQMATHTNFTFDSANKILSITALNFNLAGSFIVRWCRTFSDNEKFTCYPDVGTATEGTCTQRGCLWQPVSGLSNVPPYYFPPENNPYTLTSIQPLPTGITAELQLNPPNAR
T2 sequence (P23739 1014-1841 limits assumed): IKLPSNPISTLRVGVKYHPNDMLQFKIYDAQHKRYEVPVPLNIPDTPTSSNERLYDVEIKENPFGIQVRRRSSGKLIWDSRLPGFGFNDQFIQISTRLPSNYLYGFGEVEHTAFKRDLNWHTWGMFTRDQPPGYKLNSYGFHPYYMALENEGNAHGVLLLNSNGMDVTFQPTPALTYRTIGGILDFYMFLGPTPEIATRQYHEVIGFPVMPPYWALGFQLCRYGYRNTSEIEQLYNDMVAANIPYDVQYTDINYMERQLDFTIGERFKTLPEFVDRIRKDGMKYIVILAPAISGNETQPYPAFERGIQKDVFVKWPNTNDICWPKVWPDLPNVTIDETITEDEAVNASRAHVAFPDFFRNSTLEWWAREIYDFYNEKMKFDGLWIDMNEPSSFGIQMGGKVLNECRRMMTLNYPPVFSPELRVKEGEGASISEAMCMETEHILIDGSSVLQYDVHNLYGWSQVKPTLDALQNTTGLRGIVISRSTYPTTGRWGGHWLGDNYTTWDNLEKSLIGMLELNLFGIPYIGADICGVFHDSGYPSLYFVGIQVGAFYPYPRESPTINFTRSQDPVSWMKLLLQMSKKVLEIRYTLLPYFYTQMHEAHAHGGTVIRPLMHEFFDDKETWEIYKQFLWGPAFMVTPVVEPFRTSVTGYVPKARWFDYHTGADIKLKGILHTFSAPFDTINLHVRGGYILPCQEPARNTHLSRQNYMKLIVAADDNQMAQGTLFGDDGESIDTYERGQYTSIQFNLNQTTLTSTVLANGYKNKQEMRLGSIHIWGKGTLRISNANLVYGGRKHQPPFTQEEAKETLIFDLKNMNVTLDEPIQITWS

Prunus dulcis = test: Inhibition of almond beta-glucosidase assessed as release of p-nitrophenol at 1000 uM using p-nitrophenyl glycoside as substrate by spectrometric assay relative to control
[3] = target: T2, Sucrase-isomaltase, intestinal; test: Inhibition of rat intestinal sucrase assessed as release of p-nitrophenol using p-nitrophenyl glycoside as substrate by spectrometric assay
[4] = Inhibition of bovine liver beta-glucosidase assessed as release of p-nitrophenol using p-nitrophenyl glycoside as substrate by spectrometric assay; design: species or system Bos taurus
Penicillium decumbens = test: Inhibition of Penicillium decumbens alpha-L-rhamnosidase assessed as release of p-nitrophenol at 1000 uM using p-nitrophenyl glycoside as substrate by spectrometric assay relative to control
[5] = target: T1, Lysosomal alpha-glucosidase; test: Inhibition of human lysosomal alpha glucosidase assessed as release of p-nitrophenol at 1000 uM using p-nitrophenyl glycoside as substrate by spectrometric assay relative to control
Escherichia coli = test: Inhibition of Escherichia coli beta-glucuronidase assessed as release of p-nitrophenol at 1000 uM using p-nitrophenyl glycoside as substrate by spectrometric assay relative to control
Aspergillus niger = test: Inhibition of Aspergillus niger amyloglucosidase assessed as release of p-nitrophenol at 1000 uM using p-nitrophenyl glycoside as substrate by spectrometric assay relative to control
Bos taurus [6] = species on record: Bos taurus; test: Inhibition of bovine liver beta-glucronidase assessed as release of p-nitrophenol at 1000 uM using p-nitrophenyl glycoside as substrate by spectrometric assay relative to control
Sus scrofa = species on record: Sus scrofa; test: Inhibition of porcine kidney alpha-trehalase assessed as release of p-nitrophenol at 1000 uM using p-nitrophenyl glycoside as substrate by spectrometric assay relative to control
[7] = target: T3, Tissue alpha-L-fucosidase (Bos taurus) (UniProt Q2KIM0); test: Inhibition of bovine kidney alpha-L-fucosidase assessed as release of p-nitrophenol at 1000 uM using p-nitrophenyl glycoside as substrate by spectrometric assay relative to control
T3 sequence (whole entry): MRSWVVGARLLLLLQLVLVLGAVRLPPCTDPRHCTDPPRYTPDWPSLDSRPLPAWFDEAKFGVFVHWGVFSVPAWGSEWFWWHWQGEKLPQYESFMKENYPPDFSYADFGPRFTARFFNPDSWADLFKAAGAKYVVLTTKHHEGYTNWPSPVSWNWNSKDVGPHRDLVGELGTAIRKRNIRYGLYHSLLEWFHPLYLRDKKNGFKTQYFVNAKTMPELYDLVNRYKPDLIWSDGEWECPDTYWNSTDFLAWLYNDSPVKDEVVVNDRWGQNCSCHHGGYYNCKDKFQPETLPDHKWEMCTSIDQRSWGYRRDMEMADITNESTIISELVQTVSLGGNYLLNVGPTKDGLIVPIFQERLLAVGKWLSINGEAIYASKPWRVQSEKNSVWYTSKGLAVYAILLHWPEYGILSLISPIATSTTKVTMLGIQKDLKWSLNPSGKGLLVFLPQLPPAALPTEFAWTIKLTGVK

Bos taurus [8] = species on record: Bos taurus; test: Inhibition of bovine liver beta-glucosidase assessed as release of p-nitrophenol at 1000 uM using p-nitrophenyl glycoside as substrate by spectrometric assay relative to control
Saccharomyces cerevisiae = test: Inhibition of yeast alpha-glucosidase assessed as release of p-nitrophenol at 1000 uM using p-nitrophenyl glycoside as substrate by spectrometric assay relative to control
[9] = target: Alpha-galactosidase (Coffea arabica) (UniProt Q42656); test: Inhibition of coffee beans alpha-galactosidase assessed as release of p-nitrophenol at 1000 uM using p-nitrophenyl glycoside as substrate by spectrometric assay relative to control
Alpha-galactosidase (Coffea arabica), sequence (Q42656 16-378 limits assumed): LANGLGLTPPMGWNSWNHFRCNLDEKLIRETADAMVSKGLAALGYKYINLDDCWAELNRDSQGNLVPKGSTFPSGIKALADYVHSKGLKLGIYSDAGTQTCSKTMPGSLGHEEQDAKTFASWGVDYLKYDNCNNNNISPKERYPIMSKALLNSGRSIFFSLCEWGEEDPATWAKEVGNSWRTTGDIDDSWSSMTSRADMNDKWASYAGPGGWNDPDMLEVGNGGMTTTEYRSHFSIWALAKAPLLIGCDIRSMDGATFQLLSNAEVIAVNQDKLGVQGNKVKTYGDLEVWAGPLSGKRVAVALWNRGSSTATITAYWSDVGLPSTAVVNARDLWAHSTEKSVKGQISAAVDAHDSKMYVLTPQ

Bos taurus [10] = species on record: Bos taurus; test: Inhibition of bovine liver beta-galactosidase assessed as release of p-nitrophenol at 1000 uM using p-nitrophenyl glycoside as substrate by spectrometric assay relative to control
Helix pomatia = test: Inhibition of snail beta-mannosidase assessed as release of p-nitrophenol at 1000 uM using p-nitrophenyl glycoside as substrate by spectrometric assay relative control
Oryza sativa = test: Inhibition of rice alpha-glucosidase assessed as release of p-nitrophenol at 1000 uM using p-nitrophenyl glycoside as substrate by spectrometric assay relative to control
[11] = target: T4, Alpha-mannosidase (Canavalia ensiformis) (UniProt C0HJB3); test: Inhibition of jack bean alpha-mannosidase assessed as release of p-nitrophenol at 1000 uM using p-nitrophenyl glycoside as substrate by spectrometric assay relative to control
T4 sequence (whole entry): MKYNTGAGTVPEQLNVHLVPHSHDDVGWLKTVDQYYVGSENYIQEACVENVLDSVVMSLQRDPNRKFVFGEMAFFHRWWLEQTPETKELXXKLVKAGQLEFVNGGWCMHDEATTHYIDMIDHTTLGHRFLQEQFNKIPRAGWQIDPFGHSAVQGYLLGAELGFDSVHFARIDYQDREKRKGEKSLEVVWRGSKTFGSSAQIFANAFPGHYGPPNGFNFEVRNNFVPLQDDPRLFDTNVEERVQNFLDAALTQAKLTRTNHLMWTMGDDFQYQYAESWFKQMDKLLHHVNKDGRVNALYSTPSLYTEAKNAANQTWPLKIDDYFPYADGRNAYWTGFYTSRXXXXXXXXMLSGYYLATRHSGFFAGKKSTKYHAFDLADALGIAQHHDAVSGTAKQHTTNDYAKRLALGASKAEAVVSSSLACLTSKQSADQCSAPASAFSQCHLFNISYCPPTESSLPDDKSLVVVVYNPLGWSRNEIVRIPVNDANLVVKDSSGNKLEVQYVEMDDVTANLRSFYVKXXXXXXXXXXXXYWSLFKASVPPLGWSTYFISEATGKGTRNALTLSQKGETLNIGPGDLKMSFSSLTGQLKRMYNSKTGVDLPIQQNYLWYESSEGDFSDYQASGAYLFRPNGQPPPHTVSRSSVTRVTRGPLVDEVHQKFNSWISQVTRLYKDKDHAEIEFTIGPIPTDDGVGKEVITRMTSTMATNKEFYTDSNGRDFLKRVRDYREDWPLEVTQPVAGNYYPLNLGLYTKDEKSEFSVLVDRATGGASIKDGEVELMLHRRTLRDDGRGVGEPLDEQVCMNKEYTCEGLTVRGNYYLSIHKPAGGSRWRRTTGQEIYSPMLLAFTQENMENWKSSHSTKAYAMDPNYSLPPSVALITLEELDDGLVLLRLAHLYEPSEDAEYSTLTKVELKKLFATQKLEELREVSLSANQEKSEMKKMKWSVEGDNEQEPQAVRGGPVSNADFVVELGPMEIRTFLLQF

[12] = Inhibition of rice alpha-glucosidase assessed as release of p-nitrophenol using p-nitrophenyl glycoside as substrate by spectrometric assay; design: species or system Oryza sativa
[13] = Inhibition of Escherichia coli beta-glucuronidase assessed as release of p-nitrophenol using p-nitrophenyl glycoside as substrate by spectrometric assay
[14] = target: Sucrase-isomaltase, intestinal (Rattus norvegicus) (UniProt P23739); test: Inhibition of rat intestinal sucrase assessed as release of p-nitrophenol at 1000 uM using p-nitrophenyl glycoside as substrate by spectrometric assay relative to control
Sucrase-isomaltase, intestinal (Rattus norvegicus), sequence (P23739 1-1013 limits assumed): as the sequence (P23739 1-1013 limits assumed) above
Sucrase-isomaltase, intestinal (Rattus norvegicus), sequence (P23739 1014-1841 limits assumed): as the sequence (P23739 1014-1841 limits assumed) above

[15] = Inhibition of yeast alpha-glucosidase assessed as release of p-nitrophenol using p-nitrophenyl glycoside as substrate by spectrometric assay; design: species or system Saccharomyces cerevisiae
Rattus norvegicus = species on record: Rattus norvegicus; test: Inhibition of rat intestinal alpha-trehalase assessed as release of p-nitrophenol at 1000 uM using p-nitrophenyl glycoside as substrate by spectrometric assay relative to control
[16] = Inhibition of Aspergillus niger amyloglucosidase assessed as release of p-nitrophenol using p-nitrophenyl glycoside as substrate by spectrometric assay
[17] = Inhibition of porcine kidney alpha-trehalase assessed as release of p-nitrophenol using p-nitrophenyl glycoside as substrate by spectrometric assay; design: species or system Sus scrofa
[18] = Inhibition of bovine liver beta-galactosidase assessed as release of p-nitrophenol using p-nitrophenyl glycoside as substrate by spectrometric assay; design: species or system Bos taurus

Structure (SMILES) | IC50 [1] [µM] | IC50 [2] [µM] | inhibition (Prunus dulcis) [%] | IC50 [3] [µM] | IC50 [4] [µM] | inhibition (Penicillium decumbens) [%] | inhibition (Escherichia coli) [%] | inhibition (Aspergillus niger) [%] | inhibition (Bos taurus [6]) [%] | inhibition (Sus scrofa) [%] | inhibition [7] [%] | inhibition (Bos taurus [8]) [%] | inhibition (Saccharomyces cerevisiae) [%] | inhibition [9] [%] | inhibition (Bos taurus [10]) [%] | inhibition (Helix pomatia) [%] | inhibition [11] [%] | also measured
C[C@@]1(CO)NC[C@H](O)[C@H]1O | 5.6 | 2 | 6.2 | 0.64 | 183 | – | – | – | – | – | – | – | – | – | – | – | – | –
COc1ccc([C@]2(CO)NC[C@@H](O)[C@@H]2O)cc1 | – | – | 2.7 | 107 | – | 0 | 25 | 0 | 5.9 | 3 | 2.7 | 33.5 | 22 | 7.5 | 41 | 0 | 0.2 | inhibition [5]: 40.2%; inhibition (Oryza sativa): 37.8%
CCCC[C@@]1(CO)NC[C@H](O)[C@H]1O | 2.4 | 13 | 0.9 | 0.23 | 226 | – | – | – | – | – | – | – | – | – | – | – | – | –
COc1ccc([C@@]2(CO)NC[C@H](O)[C@H]2O)cc1 | 601 | 650 | 7.1 | 0.33 | – | – | – | – | – | – | – | 43 | – | – | – | – | – | –
CCCC[C@]1(CO)NC[C@@H](O)[C@@H]1O | 79 | – | 8 | 2.3 | – | 11.3 | – | 2 | 7.2 | 2.4 | 20.8 | 34.3 | 32.7 | 4.6 | 36.9 | 3.6 | 1.9 | IC50 [12]: 59 µM; IC50 [13]: 774 µM
OC[C@@]1(c2ccccc2)NC[C@@H](O)[C@@H]1O | – | – | 2.3 | – | – | 0 | 7.3 | 0 | 1.8 | 0.8 | 0 | 29.6 | 22 | 9.9 | 34.1 | 0 | 0 | inhibition [5]: 35%; inhibition (Oryza sativa): 18.6%; inhibition [14]: 42.8%
Cc1ccc([C@@]2(CO)NC[C@H](O)[C@H]2O)cc1 | – | – | 7.8 | 1 | – | 7.4 | 0 | 8.3 | 8.7 | 0 | 3.3 | 16.7 | – | 0 | 22.6 | 0 | 0 | inhibition [5]: 45.9%; IC50 [12]: 697 µM; IC50 [15]: 57 µM; inhibition (Rattus norvegicus): 12.9%
CCCCCCCCC[C@@]1(CO)NC[C@H](O)[C@H]1O | 3.7 | 113 | 0 | 0.68 | 430 | – | – | – | – | – | – | – | – | – | – | – | – | –
OC[C@@]1(c2cccc(F)c2)NC[C@@H](O)[C@@H]1O | – | – | 0.9 | 6.5 | – | 0 | 0 | 8.3 | 26.2 | 3.8 | 0 | 16.7 | 41.8 | 0 | 21.7 | 0 | 0 | inhibition [5]: 10.3%; inhibition (Oryza sativa): 1.4%; inhibition (Rattus norvegicus): 0%
OC[C@]1(c2ccccc2)NC[C@H](O)[C@H]1O | 0.63 | 32 | 0.9 | 0.48 | 71 | – | – | – | – | – | – | – | – | – | – | – | – | –
OC[C@H]1NC[C@@H](O)[C@@H]1O | – | – | – | – | 638 | < 50 | – | – | – | – | – | – | – | – | < 50 | < 50 | – | IC50 [16]: 362 µM; IC50 [17]: 4.8 µM; IC50 [15]: 0.15 µM
CCCCCCCCC[C@]1(CO)NC[C@@H](O)[C@@H]1O | 130 | – | 6.8 | 455 | – | 0 | 31.6 | 3.9 | 4.6 | 6.4 | 0 | 49.2 | – | 2.5 | – | 0 | 0 | IC50 [12]: 727 µM; IC50 [18]: 477 µM; IC50 [15]: 116 µM
C[C@]1(CO)NC[C@@H](O)[C@@H]1O | 16 | – | 6.8 | 2.2 | – | 10.1 | 4.8 | 4.7 | 4.3 | 3.9 | 10.9 | 35.7 | 12.4 | 0.6 | 37.6 | 0 | 3.8 | –
OC[C@@]1(c2ccc(O)cc2)NC[C@@H](O)[C@@H]1O | 372 | – | 8.7 | 0.74 | – | 5.5 | 0.4 | 9.2 | 19.9 | 4.5 | 0 | 10.8 | – | 1.2 | 20.4 | 0 | 2.2 | IC50 [12]: 337 µM; IC50 [15]: 64 µM; inhibition (Rattus norvegicus): 0%
